Results published in patent US20090305980A1, “Methods and Compositions Related to TR4” (UNIVERSITY OF ROCHESTER, priority 2006, published 2009).

Assays:
wt MEFs = test: Cellular ROS levels by flow cytometry in wt MEFs; type: cell-based, mouse
Procedure: (§1) MEFs from wt and TR4 KO were treated with 200 μM H2O2 for 30 min in the presence/absence of 100 nM of α-tocopherol, and the cellular ROS levels were then measured by flow cytometric analysis. The relative ROS levels were calculated by comparing with untreated MEFs from wt and TR4 KO independently.
Replicative senescence has been employed as a cellular model for aging and it occurs primarily in response to oxidative DNA damage (Campisi, J. et al. (2005) Cell, 120: 513-522). Wt MEFs grow well for approximately 2-3 doublings (P2-3) before decreasing in proliferation, and after 8-10 doublings, the cell senescence occurs. In contrast, TR4 KO MEFs proliferation drastically decline after P4 (FIG. 4A). […] The amounts of cellular ROS in MEFs were determined by flow cytometry using DCFH-DA. […] When MEFs were exposed to H2O2 and measured cellular ROS levels, the amounts of fluorescence in both in wt and TR4 KO increased after H2O2 treatment; TR4 KO MEFs accumulated more ROS than wt MEFs. […]
To determine if TR4 is a mediator for non-enzymatic antioxidants, including vitamin C, vitamin E, β-carotene, and selenium, to suppress ROS production in the cells, cellular ROS levels are examined in LMWA-treated MEFs to antagonize oxidative stress. MEFs from TR4 KO and wt are treated with LMWA with/without H2O2 oxidative stress challenge as ROS levels are measured. […]

TR4 KO MEFs = test: Cellular ROS levels by flow cytometry in TR4 KO MEFs; type: cell-based, mouse
Procedure: as §1
Replicative senescence has been employed as a cellular model for aging and it occurs primarily in response to oxidative DNA damage (Campisi, J. et al. (2005) Cell, 120: 513-522). Wt MEFs grow well for approximately 2-3 doublings (P2-3) before decreasing in proliferation, and after 8-10 doublings, the cell senescence occurs. In contrast, TR4 KO MEFs proliferation drastically decline after P4 (FIG. 4A). ROS contribute to cells senescence, and how cells respond to oxidative stress would determine the life span. The amounts of cellular ROS in MEFs were determined by flow cytometry using DCFH-DA. […] When MEFs were exposed to H2O2 and measured cellular ROS levels, the amounts of fluorescence in both in wt and TR4 KO increased after H2O2 treatment; TR4 KO MEFs accumulated more ROS than wt MEFs.
To test if TR4 is involved in low molecular weight antioxidant (LMWA), such as vitamin E anti-oxidant effects, fibroblasts from TR4 KO and wt were challenged with 250 μM H2O2 in the presence of 100 nM α-tocopherol and VES.
To determine if TR4 is a mediator for non-enzymatic antioxidants, including vitamin C, vitamin E, β-carotene, and selenium, to suppress ROS production in the cells, cellular ROS levels are examined in LMWA-treated MEFs to antagonize oxidative stress. MEFs from TR4 KO and wt are treated with LMWA with/without H2O2 oxidative stress challenge as ROS levels are measured. The ones that lose its anti-oxidant activity in KO MEFs but not wt MEFs are the candidates. […] Therefore, TR4 is mediated by some LMWAs, such as vitamin E, to suppress cellular ROS production. Herein, the anti-ROS effects are compared on TR4 KO vs wt MEFs in response to other LMWAs. The focus is on how TR4 regulates vitamin E and the other LMWA that lost anti-ROS response in TR4 KO MEFs.

Structure (SMILES): Cc1c(C)c2c(c(C)c1O)CC[C@@](C)(CCC[C@H](C)CCC[C@H](C)CCCC(C)C)O2 [vitamin E, α-tocopherol]
- intrinsic and exogenous ROS production (wt MEFs; wt MEFs, 10^−7 M vitamin E): can reduce
- ROS (vitamin E-mediated anti-oxidant effect) (wt MEFs; wt fibroblasts, 250 μM H2O2, 100 nM α-tocopherol and VES): reduction of ROS
- intrinsic and exogenous ROS production (TR4 KO MEFs; KO MEFs, 10^−7 M vitamin E): not
- vitamin E anti-ROS effects (relative ROS levels) (TR4 KO MEFs; TR4KO MEFs, 200 μM H2O2 for 30 min, 100 nM α-tocopherol): loss of vitamin E anti-ROS effects
- ROS (vitamin E-mediated anti-oxidant effect) (TR4 KO MEFs; TR4 KO fibroblasts, 250 μM H2O2, 100 nM α-tocopherol and VES): lost the vitamin E-mediated anti-oxidant effect
